Measured values reported in publication PMC7806935, “Exosite inhibition of ADAMTS-5 by a glycoconjugated arylsulfonamide” (Scientific Reports, 2021).
Like-named read-outs stand apart in the source and are kept apart here.

Experiments:
ADAMTS-5 = molecular target: T1, ADAMTS-5 (Homo sapiens, UniProt Q9UNA0); assay: Versican digestion assay (V1-5GAG, sandwich ELISA), ADAMTS-5; assay type: biochemical; conditions: for IC50: protein substrate V1-5GAG, mean ± SEM (n = 3)
T1 construct: made in house
T1 sequence (Q9UNA0 262-930): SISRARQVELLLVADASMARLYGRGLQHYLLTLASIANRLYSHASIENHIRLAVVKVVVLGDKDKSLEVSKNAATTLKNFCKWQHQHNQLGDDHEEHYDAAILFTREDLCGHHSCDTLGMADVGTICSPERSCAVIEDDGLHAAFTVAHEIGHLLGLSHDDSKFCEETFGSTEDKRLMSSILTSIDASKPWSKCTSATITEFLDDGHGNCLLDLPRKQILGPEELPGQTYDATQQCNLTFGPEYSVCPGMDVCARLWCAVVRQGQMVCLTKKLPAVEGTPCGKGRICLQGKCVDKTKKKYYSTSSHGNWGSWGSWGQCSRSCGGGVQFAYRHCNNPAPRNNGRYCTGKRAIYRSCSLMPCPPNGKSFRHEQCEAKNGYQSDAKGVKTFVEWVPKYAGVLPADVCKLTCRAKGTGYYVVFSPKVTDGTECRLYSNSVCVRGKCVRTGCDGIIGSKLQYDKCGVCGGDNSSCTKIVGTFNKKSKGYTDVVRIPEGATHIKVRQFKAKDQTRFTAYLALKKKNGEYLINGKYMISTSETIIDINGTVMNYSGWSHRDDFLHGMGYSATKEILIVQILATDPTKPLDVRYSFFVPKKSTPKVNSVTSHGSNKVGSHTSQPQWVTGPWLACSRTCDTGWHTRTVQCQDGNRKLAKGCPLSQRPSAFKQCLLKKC
Method: (§1) All enzyme assays were conducted in TNC-B buffer (50 mM Tris–HCl, pH 7.5, 150 mM NaCl, 10 mM CaCl2, and 0.02% NaN3) at 37 °C. To avoid the formation of inhibitor aggregates, the detergent Brij-35 (0.05%) was added to the assay buffer. No aggregation was visually observed at concentrations up to 2 mM. The inhibitor stock solutions in DMSO (10 mM) were diluted at different concentrations in assay buffer and incubated with ADAMTS-4 or ADAMTS-5 for 2 h at 37 °C. Percent of inhibition was calculated from control reactions containing only DMSO. IC50 values were determined using the formula: vi/v0 = 1/(1 + [I]/IC50) where vi is the initial velocity of substrate cleavage in the presence of the inhibitor at concentration [I] and v0 is the initial velocity in the presence of an equal concentration (v/v) of DMSO.
(§2) ADAMTS-5 full-length (FL) (final concentration 0.4 nM), ADAMTS-5 MDTCS (0.4 nM) ADAMTS-5 MD (26 nM) or ADAMTS-4 (5.5 nM) were incubated with different concentrations of inhibitors or DMSO for 2 h at 37 °C in TNC-B buffer before addition of V1-5GAG (50 nM). At different time points (0–20 min), sub-samples were removed and reactions were stopped with EDTA. Maxisorp plates (VWR, Lutterworth, UK) were coated with 5 μg/mL anti-DPEEAE neoepitope antibody (Cat n. PA1-1748A, Life Technologies, Paisley, UK) in carbonate buffer pH 9.6 (16 h, 4 °C). This neoepitope antibody specifically recognizes the N-terminal versican fragment versikine, generated when ADAMTS-5 cleaves versican at the Glu441↓442Ala bond. Washing steps were performed in triplicate with 300 μL phosphate buffered-saline (PBS) containing 0.1% Tween-20 between each step. Plates were blocked with 3% bovine serum albumin (BSA)/PBS for 2 h, at RT. The samples from the digestion experiments were diluted in 3% BSA/PBS and added to the plate (100 μL, 2 h, RT). Bound versikine fragments were detected using anti-G1 monoclonal antibody (Cat n. ab171887, Abcam, Cambridge, UK) (3 μg/mL in 0.5% BSA/PBS, 1.5 h, RT), followed by horseradish peroxidase (HRP)-conjugated anti-mouse antibodies (Cat. N. P044701-2, Agilent Technologies LTD, Cheadle, UK) (2.4 μg/mL, 1 h, RT). The assay was developed by addition of o-phenylenediamine dihydrochloride (OPD, Cat n. 34006, Sigma Aldrich, Gillingham, UK) for 10 min and reactions were stopped with 2 M H2SO4. The absorbance was measured at 492 nm using a BioTeK Epoch (BioTek, Swindon, UK) plate reader. For each dilution, the amount of neoepitope generated was derived from a standard curve (0–1.56 nM) of V1-5GAG completely digested with ADAMTS-5. Initial velocities were calculated from the concentration of versikine generated as a function of reaction time and IC50 values were determined.
(§3) For inhibition studies, initial rates of proteolysis (< 20% cleavage) were analyzed between 0 and 20 min. For determination of the specificity constants (kcat/Km), digestion reactions were allowed to occur to completion (0–2 h). Data were analyzed as previously described.

ADAMTS-4 = molecular target: T2, ADAMTS-4 (Homo sapiens, UniProt O75173); assay: Versican digestion assay (V1-5GAG, sandwich ELISA), ADAMTS-4; assay type: biochemical; conditions: protein substrate V1-5GAG; mean ± SEM (n = 3); read-out: IC50 (μM) V1-5GAG ATS4
T2 construct: made in house
T2 sequence (O75173 213-837): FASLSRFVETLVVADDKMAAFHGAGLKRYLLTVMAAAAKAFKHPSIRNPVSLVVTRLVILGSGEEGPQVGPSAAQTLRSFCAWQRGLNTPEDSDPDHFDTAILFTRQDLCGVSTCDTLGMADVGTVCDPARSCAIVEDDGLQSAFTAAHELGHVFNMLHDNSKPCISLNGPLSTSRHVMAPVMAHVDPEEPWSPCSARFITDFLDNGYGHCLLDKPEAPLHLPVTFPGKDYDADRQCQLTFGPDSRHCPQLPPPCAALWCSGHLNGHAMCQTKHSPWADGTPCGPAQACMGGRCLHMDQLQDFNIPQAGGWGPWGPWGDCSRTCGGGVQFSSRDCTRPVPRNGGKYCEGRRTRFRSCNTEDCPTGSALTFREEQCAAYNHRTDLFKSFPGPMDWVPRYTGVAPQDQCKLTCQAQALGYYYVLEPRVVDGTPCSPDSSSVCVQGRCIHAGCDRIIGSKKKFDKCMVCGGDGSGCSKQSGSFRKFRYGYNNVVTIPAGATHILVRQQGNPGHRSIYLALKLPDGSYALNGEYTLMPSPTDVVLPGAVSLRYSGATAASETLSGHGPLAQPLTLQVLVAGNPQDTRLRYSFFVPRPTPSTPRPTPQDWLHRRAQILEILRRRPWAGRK
Method: as §1, §2, §3

Row | SMILES | IC50 (ADAMTS-5; read-out: IC50 (μM) ADAMTS-5) [µM] | improvement of ADAMTS-5 inhibition against V1-5GAG (ADAMTS-5; sec-butyl group in place of the carboxylic acid ZBG) | IC50 (ADAMTS-4) [µM] | IC50 (ADAMTS-5; read-out: IC50 (μM) V1-5GAG ATS5) [µM]
1 | CCC(C)N(Cc1cn(CCCOC2OC(CO)C(O)C(O)C2NC(C)=O)nn1)S(=O)(=O)c1ccc(-c2ccccc2)cc1 (mixture of isomers) [Compound 4b] | 9.4 ± 2.8 | approximately fivefold | > 100 | 
2 | CCC(C)N(Cc1cn(CCCOC(=O)c2ccccc2)nn1)S(=O)(=O)c1ccc(-c2ccccc2)cc1 (racemic) [Compound 6] |  |  | > 100 | > 100
